Entries after “also recorded” stand apart in the source; their conditions may differ.
Legend:
[1] = Water Vapour Sorption isotherm (DVS), hygroscopicity acc. to Ph. Eur.; assay type: physicochemical; conditions: for Hygroscopicity classification acc. to Ph. Eur. criteria (section 5.11.): based on water uptake difference 40-80% rh; for Water uptake level (Water Vapour Sorption): isotherm 25° C.
Procedure: As used herein, unless stated otherwise, Water Vapour Sorption isotherm measurements are carried out on a DVS-1 or a DVS-Intrinsic system from SMS.

[2] = Miniaturized non-sink dissolution in FaSSIF pH 6.5; assay type: physicochemical; conditions: for Dissolution levels in FaSSIF pH 6.5: 37° C.; for Dissolution level in FaSSIF: FaSSIF pH 6.5, 37° C.
Procedure: Approx. 10-20 mg of solid sample were weighed into glass vials. 7 ml of respective FaSSIF (pH 6.5) medium (prewarmed to 37° C.) were added and the suspension was shaken at 450 rpm at 37° C. After 5 min, 15 min, 60 min, and 120 min, 1 ml suspension was withdrawn and filtered through a 0.2 µm syringe filter. Clear filtrate was analysed by HPLC after suitable dilution to measure the amount of API dissolved. To get non-sink conditions 1 ml pre warmed FaSSiF solution was added after sample was withdrawn.
The clear solution was collected in HPLC vials, the filtrate further diluted if necessary and finally HPLC analysis was carried out.
HPLC method for ph-dependent solubility & miniaturised non-sink dissolution: • Column: Chromolith RP-18e 100 - 3 mm • Solvent A: water/formic acid (999:1; v/v) • Solvent B: acetonitrile/formic acid (999:1; v/v) • Injection volume: 5 µL • Column temperature: 37° C. • Wavelength detector: 218 nm

[3] = relative humidity range 40-80% rh

| Compound | Hygroscopicity classification acc. to Ph. Eur. criteria (section 5.11.) [1] | Water uptake level (Water Vapour Sorption) [1, 3] [wt%] | Dissolution level in FaSSIF ([2]; after 15 min) | Dissolution level in FaSSIF ([2]; after 60 min) | Dissolution level in FaSSIF ([2]; after 120 min) | Tendency to undergo hydrate formation upon exposure to elevated RH levels ([1]; up to 90% RH) | further results |
| --- | --- | --- | --- | --- | --- | --- | --- |
| COc1ccc2nc3cc(Cl)ccc3c(Nc3cc(CN4CCCC4)c(O)c(CN4CCCC4)c3)c2n1 [Form I, 4-[(7-chloro-2-methoxybenzo[b][1,5]naphthyridin-10-yl)amino]-2,6-bis(pyrrolidin-1-ylmethyl)phenol] | hygroscopic | 2.4 | approx. 0.56 mg/mL | approx. 0.55 mg/mL | approx. 0.54 mg/mL | – | Dissolution levels in FaSSIF pH 6.5 ([2]; 5 min, listed as Tosylate salt Form I): 547.9 µg/mL; Dissolution levels in FaSSIF pH 6.5 ([2]; 15 min, listed as Tosylate salt Form I): 557.9 µg/mL; Dissolution levels in FaSSIF pH 6.5 ([2]; 60 min, listed as Tosylate salt Form I): 552.8 µg/mL; Dissolution levels in FaSSIF pH 6.5 ([2]; 120 min, listed as Tosylate salt Form I): 537.7 µg/mL |
| COc1ccc2nc3cc(Cl)ccc3c(Nc3cc(CN4CCCC4)c(O)c(CN4CCCC4)c3)c2n1 [Form II, 4-[(7-chloro-2-methoxybenzo[b][1,5]naphthyridin-10-yl)amino]-2,6-bis(pyrrolidin-1-ylmethyl)phenol] | slightly hygroscopic | – | approx. 0.45 mg/mL | approx. 0.44 mg/mL | approx. 0.44 mg/mL | – | Water uptake level (Water Vapour Sorption) ([1]; relative humidity range 40-90% rh): 1.4 wt%; Dissolution levels in FaSSIF pH 6.5 ([2]; 5 min, listed as Besylate salt Form II): 432.8 µg/mL; Dissolution levels in FaSSIF pH 6.5 ([2]; 15 min, listed as Besylate salt Form II): 447.0 µg/mL; Dissolution levels in FaSSIF pH 6.5 ([2]; 60 min, listed as Besylate salt Form II): 440.1 µg/mL; Dissolution levels in FaSSIF pH 6.5 ([2]; 120 min, listed as Besylate salt Form II): 444.5 µg/mL |
| COc1ccc2nc3cc(Cl)ccc3c(Nc3cc(CN4CCCC4)c(O)c(CN4CCCC4)c3)c2n1 [Form III, 4-[(7-chloro-2-methoxybenzo[b][1,5]naphthyridin-10-yl)amino]-2,6-bis(pyrrolidin-1-ylmethyl)phenol] | slightly hygroscopic | 1.5 | approx. 0.46 mg/mL | approx. 0.48 mg/mL | approx. 0.47 mg/mL | no tendency to undergo hydrate formation | Dissolution levels in FaSSIF pH 6.5 ([2]; 5 min, listed as Edisylate salt Form III): 406.7 µg/mL; Dissolution levels in FaSSIF pH 6.5 ([2]; 15 min, listed as Edisylate salt Form III): 462.7 µg/mL; Dissolution levels in FaSSIF pH 6.5 ([2]; 60 min, listed as Edisylate salt Form III): 483.3 µg/mL; Dissolution levels in FaSSIF pH 6.5 ([2]; 120 min, listed as Edisylate salt Form III): 469.7 µg/mL |
| COc1ccc2nc3cc(Cl)ccc3c(Nc3cc(CN4CCCC4)c(O)c(CN4CCCC4)c3)c2n1 [Form IV, 4-[(7-chloro-2-methoxybenzo[b][1,5]naphthyridin-10-yl)amino]-2,6-bis(pyrrolidin-1-ylmethyl)phenol] | slightly hygroscopic | 0.6 | approx. 0.17 mg/mL | approx. 0.56 mg/mL | approx. 0.82 mg/mL | no tendency to undergo hydrate formation | Dissolution levels in FaSSIF pH 6.5 ([2]; 5 min, listed as Napsylate salt Form IV): 116.6 µg/mL; Dissolution levels in FaSSIF pH 6.5 ([2]; 15 min, listed as Napsylate salt Form IV): 209.0 µg/mL; Dissolution levels in FaSSIF pH 6.5 ([2]; 60 min, listed as Napsylate salt Form IV): 488.8 µg/mL; Dissolution levels in FaSSIF pH 6.5 ([2]; 120 min, listed as Napsylate salt Form IV): 630.0 µg/mL |
| COc1ccc2nc3cc(Cl)ccc3c(Nc3cc(CN4CCCC4)c(O)c(CN4CCCC4)c3)c2n1 [Form V, 4-[(7-chloro-2-methoxybenzo[b][1,5]naphthyridin-10-yl)amino]-2,6-bis(pyrrolidin-1-ylmethyl)phenol] | slightly hygroscopic; also recorded: non-hygroscopic | 0.6 | approx. 0.17 mg/mL | approx. 0.56 mg/mL | approx. 0.82 mg/mL | no tendency to undergo hydrate formation | Dissolution levels in FaSSIF pH 6.5 ([2]; 5 min, listed as Napsylate salt Form V): 95.2 µg/mL; Dissolution levels in FaSSIF pH 6.5 ([2]; 15 min, listed as Napsylate salt Form V): 171.1 µg/mL; Dissolution levels in FaSSIF pH 6.5 ([2]; 60 min, listed as Napsylate salt Form V): 564.1 µg/mL; Dissolution levels in FaSSIF pH 6.5 ([2]; 120 min, listed as Napsylate salt Form V): 817.6 µg/mL |
| COc1ccc2nc3cc(Cl)ccc3c(Nc3cc(CN4CCCC4)c(O)c(CN4CCCC4)c3)c2n1 [Form VI, 4-[(7-chloro-2-methoxybenzo[b][1,5]naphthyridin-10-yl)amino]-2,6-bis(pyrrolidin-1-ylmethyl)phenol] | non-hygroscopic | < 0.1 | – | – | – | – | Tendency to undergo hydrate formation upon exposure to elevated RH levels ([1]; up to 98% RH): no tendency to undergo hydrate formation |
| COc1ccc2nc3cc(Cl)ccc3c(Nc3cc(CN4CCCC4)c(O)c(CN4CCCC4)c3)c2n1 [Form VII, 4-[(7-chloro-2-methoxybenzo[b][1,5]naphthyridin-10-yl)amino]-2,6-bis(pyrrolidin-1-ylmethyl)phenol] | non-hygroscopic; also recorded: slightly hygroscopic | < 0.1 | – | – | – | – | Tendency to undergo hydrate formation upon exposure to elevated RH levels ([1]; up to 98% RH): no tendency to undergo hydrate formation |
| COc1ccc2nc3cc(Cl)ccc3c(Nc3cc(CN4CCCC4)c(O)c(CN4CCCC4)c3)c2n1 [Tetraphosphate form, 4-[(7-chloro-2-methoxybenzo[b][1,5]naphthyridin-10-yl)amino]-2,6-bis(pyrrolidin-1-ylmethyl)phenol tetraphosphate, reference compound] | hygroscopic | > 4.9 | approx. 0.50 mg/mL | approx. 0.50 mg/mL | approx. 0.49 mg/mL | – | Hygroscopicity classification acc. to Ph. Eur. criteria (section 5.11.) ([1]; listed as pyronaridine): hygroscopic; Dissolution levels in FaSSIF pH 6.5 ([2]; 5 min, listed as Pyronaridine (tetraphosphate salt, prior art form)): 501.4 µg/mL; Dissolution levels in FaSSIF pH 6.5 ([2]; 15 min, listed as Pyronaridine (tetraphosphate salt, prior art form)): 501.9 µg/mL; Dissolution levels in FaSSIF pH 6.5 ([2]; 60 min, listed as Pyronaridine (tetraphosphate salt, prior art form)): 501.3 µg/mL; Dissolution levels in FaSSIF pH 6.5 ([2]; 120 min, listed as Pyronaridine (tetraphosphate salt, prior art form)): 491.3 µg/mL |

Source: patent US20230295156A1, “CRYSTALLINE FORMS OF 4-[(7-CHLORO-2-METHOXYBENZO[B][1,5]NAPHTHYRIDIN-10-YL)AMINO]-2,6-BIS(PYRROLIDIN-1-YLMETHYL)PHENOL AND SALTS THEREOF” (Merck Patent GmbH, priority 2020, published 2023)
